In ChEMBL document CHEMBL1153245, “A profile of the in vitro anti-tumor activity of imidazolium-based ionic liquids” (2010):

How the values were obtained:
Type in all cases: functional
SN12C = test: Anticancer activity against human SN12C cells after 48 hrs by sulforhodamine B assay; conditions: Homo sapiens, SN12C, 48 h
NCI-H226 = test: Anticancer activity against human NCI-H226 cells after 48 hrs by sulforhodamine B assay; conditions: Homo sapiens, NCI-H226, 48 h
COLO 205 = test: Anticancer activity against human COLO205 cells after 48 hrs by sulforhodamine B assay; conditions: Homo sapiens, COLO 205, 48 h
PC-3 = test: Anticancer activity against human PC3 cells after 48 hrs by sulforhodamine B assay; conditions: Homo sapiens, PC-3, 48 h
HCT-116 = test: Anticancer activity against human HCT116 cells after 48 hrs by sulforhodamine B assay; conditions: Homo sapiens, HCT-116, 48 h
CCRF-CEM = test: Anticancer activity against human CCRF-CEM cells after 48 hrs by sulforhodamine B assay; conditions: Homo sapiens, CCRF-CEM, 48 h
OVCAR-3 = test: Anticancer activity against human OVCAR-3 cells after 48 hrs by sulforhodamine B assay; conditions: Homo sapiens, OVCAR-3, 48 h
U-251 = test: Anticancer activity against human U251 cells after 48 hrs by sulforhodamine B assay; conditions: Homo sapiens, U-251, 48 h
UACC-62 = test: Anticancer activity against human UACC62 cells after 48 hrs by sulforhodamine B assay; conditions: Homo sapiens, UACC-62, 48 h
OVCAR-8 = test: Anticancer activity against human OVCAR8 cells after 48 hrs by sulforhodamine B assay; conditions: Homo sapiens, OVCAR-8, 48 h
SF-268 = test: Anticancer activity against human SF268 cells after 48 hrs by sulforhodamine B assay; conditions: Homo sapiens, SF-268, 48 h
SW-620 = test: Anticancer activity against human SW620 cells after 48 hrs by sulforhodamine B assay; conditions: Homo sapiens, SW-620, 48 h
OVCAR-5 = test: Anticancer activity against human OVCAR5 cells after 48 hrs by sulforhodamine B assay; conditions: Homo sapiens, OVCAR-5, 48 h
MDA-MB-468 = test: Anticancer activity against human MDA-MB-468 cells after 48 hrs by sulforhodamine B assay; conditions: Homo sapiens, MDA-MB-468, 48 h
SF-295 = test: Anticancer activity against human SF295 cells after 48 hrs by sulforhodamine B assay; conditions: Homo sapiens, SF-295, 48 h
NCI-H460 = test: Anticancer activity against human NCI-H460 cells after 48 hrs by sulforhodamine B assay; conditions: Homo sapiens, NCI-H460, 48 h
NCI-H23 = test: Anticancer activity against human NCI-H23 cells after 48 hrs by sulforhodamine B assay; conditions: Homo sapiens, NCI-H23, 48 h
CAKI-1 = test: Anticancer activity against human Caki1 cells after 48 hrs by sulforhodamine B assay; conditions: Homo sapiens, CAKI-1, 48 h
Malme-3M = test: Anticancer activity against human MALME-3M cells after 48 hrs by sulforhodamine B assay; conditions: Homo sapiens, Malme-3M, 48 h
TK-10 = test: Anticancer activity against human TK10 cells after 48 hrs by sulforhodamine B assay; conditions: Homo sapiens, TK-10, 48 h
MOLT-4 = test: Anticancer activity against human MOLT4 cells after 48 hrs by sulforhodamine B assay; conditions: Homo sapiens, MOLT-4, 48 h
MDA-MB-231 = test: Anticancer activity against human MDA-MB-231 cells after 48 hrs by sulforhodamine B assay; conditions: Homo sapiens, MDA-MB-231, 48 h
SNB-75 = test: Anticancer activity against human SNB75 cells after 48 hrs by sulforhodamine B assay; conditions: Homo sapiens, SNB-75, 48 h
MCF7 = test: Anticancer activity against human MCF7 cells after 48 hrs by sulforhodamine B assay; conditions: Homo sapiens, MCF7, 48 h
A549 = test: Anticancer activity against human A549 cells after 48 hrs by sulforhodamine B assay; conditions: Homo sapiens, A549, 48 h
KM12 = test: Anticancer activity against human KM12 cells after 48 hrs by sulforhodamine B assay; conditions: Homo sapiens, KM12, 48 h
SF-539 = test: Anticancer activity against human SF539 cells after 48 hrs by sulforhodamine B assay; conditions: Homo sapiens, SF-539, 48 h
T47D = test: Anticancer activity against human T47D cells after 48 hrs by sulforhodamine B assay; conditions: Homo sapiens, T47D, 48 h
HCC 2998 = test: Anticancer activity against human HCC2998 cells after 48 hrs by sulforhodamine B assay; conditions: Homo sapiens, HCC 2998, 48 h
IGROV-1 = test: Anticancer activity against human IGROV1 cells after 48 hrs by sulforhodamine B assay; conditions: IGROV-1, 48 h
HT-29 = test: Anticancer activity against human HT-29 cells after 48 hrs by sulforhodamine B assay; conditions: Homo sapiens, HT-29, 48 h
SR = test: Anticancer activity against human SR cells after 48 hrs by sulforhodamine B assay; conditions: Homo sapiens, SR, 48 h
[1] = read-out: LC50 (the source's name)

CCCCCCCCCCCCCCCC[n+]1ccn(C)c1.[Cl-]
GI50 (SN12C): 1000 nM | GI50 (NCI-H226): 861 nM | GI50 (COLO 205): 343 nM | CC50 (COLO 205; [1]): > 100000 nM | GI50 (PC-3): 268 nM | CC50 (PC-3; [1]): 3860 nM | GI50 (HCT-116): 349 nM | CC50 (HCT-116; [1]): 6220 nM | GI50 (CCRF-CEM): 164 nM | GI50 (OVCAR-3): 414 nM | GI50 (U-251): 334 nM | CC50 (U-251; [1]): 3870 nM | GI50 (UACC-62): 1040 nM | GI50 (OVCAR-8): 865 nM | GI50 (SF-268): 1020 nM | CC50 (SF-268; [1]): 4930 nM | GI50 (SW-620): 461 nM | GI50 (OVCAR-5): 912 nM | CC50 (OVCAR-5; [1]): 7240 nM | GI50 (MDA-MB-468): 92 nM | GI50 (SF-295): 383 nM | CC50 (SF-295; [1]): 5020 nM | GI50 (NCI-H460): 498 nM | GI50 (NCI-H23): 504 nM | CC50 (NCI-H23; [1]): > 100000 nM | GI50 (CAKI-1): 385 nM | GI50 (Malme-3M): 549 nM | GI50 (TK-10): 295 nM | GI50 (MOLT-4): 306 nM | GI50 (MDA-MB-231): 616 nM | CC50 (MDA-MB-231; [1]): 4550 nM | GI50 (SNB-75): 555 nM | CC50 (SNB-75; [1]): 5650 nM | GI50 (MCF7): 431 nM | GI50 (A549): 1070 nM | GI50 (KM12): 357 nM | CC50 (KM12; [1]): 3570 nM | GI50 (SF-539): 1340 nM | GI50 (T47D): 564 nM | CC50 (T47D; [1]): > 100000 nM | GI50 (HCC 2998): 192 nM | CC50 (HCC 2998; [1]): 7290 nM | GI50 (IGROV-1): 48 nM | CC50 (IGROV-1; [1]): > 100000 nM | GI50 (HT-29): 311 nM | CC50 (HT-29; [1]): 5060 nM | GI50 (SR): 100 nM | CC50 (SR; [1]): 4380 nM
